Results reported in PMC3602154 (PLoS ONE, 2013).

Key:
[1] = target: T1, M1 (Homo sapiens, UniProt P11229); test: PDSP radioligand binding, muscarinic receptor M1
T1 sequence (P11229 1-460): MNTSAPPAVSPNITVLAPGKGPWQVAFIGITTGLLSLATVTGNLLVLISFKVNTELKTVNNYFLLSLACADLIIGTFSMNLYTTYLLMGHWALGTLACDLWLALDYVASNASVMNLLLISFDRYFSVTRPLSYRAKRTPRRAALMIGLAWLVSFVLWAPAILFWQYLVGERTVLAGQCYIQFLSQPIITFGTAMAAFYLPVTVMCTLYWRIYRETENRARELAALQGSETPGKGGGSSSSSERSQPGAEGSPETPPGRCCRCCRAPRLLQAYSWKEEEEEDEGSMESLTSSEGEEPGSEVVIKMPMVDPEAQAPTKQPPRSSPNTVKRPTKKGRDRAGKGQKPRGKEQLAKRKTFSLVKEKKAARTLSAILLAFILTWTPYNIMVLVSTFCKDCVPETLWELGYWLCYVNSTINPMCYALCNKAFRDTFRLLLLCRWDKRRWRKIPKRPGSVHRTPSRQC
Description: (§1) [17] and http://pdsp.med.unc.edu/UNC-CH%20Protocol%20Book.pdf.

[2] = target: Sigma2 (Homo sapiens, UniProt Q5BJF2); test: PDSP radioligand binding, Sigma2; conditions: for inhibition at 10 µM: quadruplicate, read-out: Sigma2 Primary Screen inhibition of binding
Description: as §1

[3] = target: T2, Alpha2A (Homo sapiens, UniProt P08913); test: PDSP radioligand binding, adrenoceptor α2A
T2 sequence (P08913 1-465): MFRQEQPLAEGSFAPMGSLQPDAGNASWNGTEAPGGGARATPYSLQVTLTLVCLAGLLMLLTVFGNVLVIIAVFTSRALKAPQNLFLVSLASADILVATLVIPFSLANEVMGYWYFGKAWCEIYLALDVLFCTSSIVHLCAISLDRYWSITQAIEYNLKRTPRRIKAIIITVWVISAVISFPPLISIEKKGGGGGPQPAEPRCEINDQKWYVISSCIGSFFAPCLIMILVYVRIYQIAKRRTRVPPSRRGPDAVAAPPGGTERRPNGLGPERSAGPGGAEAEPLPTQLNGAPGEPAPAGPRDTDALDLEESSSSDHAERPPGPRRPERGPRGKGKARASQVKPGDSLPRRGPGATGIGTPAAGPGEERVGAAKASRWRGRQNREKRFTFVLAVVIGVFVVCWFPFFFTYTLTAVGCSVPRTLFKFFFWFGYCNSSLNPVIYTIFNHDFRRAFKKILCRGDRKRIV
Description: as §1

[4] = target: H1 (Homo sapiens, UniProt P35367); test: PDSP radioligand binding, histamine receptor H1
Description: as §1

[5] = target: A4B2 (Rattus norvegicus, UniProt P09483+P12390); test: PDSP radioligand binding, nicotinic receptor α4 ß2
Description: as §1

[6] = target: SERT (serotonin transporter) (Homo sapiens, UniProt P31645); test: biochemical; assay type: binding; conditions: for Ki: Table 2
Description: as §1

Sequence of A4B2 (P09483 31-630): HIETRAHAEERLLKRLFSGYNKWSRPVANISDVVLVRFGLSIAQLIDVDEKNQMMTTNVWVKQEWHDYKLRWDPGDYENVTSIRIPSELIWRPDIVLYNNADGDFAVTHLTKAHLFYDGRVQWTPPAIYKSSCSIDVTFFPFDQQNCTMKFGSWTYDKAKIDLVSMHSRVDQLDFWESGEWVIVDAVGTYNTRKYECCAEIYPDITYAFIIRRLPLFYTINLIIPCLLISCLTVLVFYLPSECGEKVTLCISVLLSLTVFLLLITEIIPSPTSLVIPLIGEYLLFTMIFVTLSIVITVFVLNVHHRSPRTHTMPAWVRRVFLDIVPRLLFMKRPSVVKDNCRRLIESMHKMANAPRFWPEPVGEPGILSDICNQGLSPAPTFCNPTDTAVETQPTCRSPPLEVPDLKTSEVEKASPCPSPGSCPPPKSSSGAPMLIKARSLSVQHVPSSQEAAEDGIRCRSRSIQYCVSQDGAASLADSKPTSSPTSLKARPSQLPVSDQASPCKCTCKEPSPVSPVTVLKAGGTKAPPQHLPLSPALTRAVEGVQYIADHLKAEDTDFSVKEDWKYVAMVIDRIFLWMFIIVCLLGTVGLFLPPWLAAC
Sequence of A4B2 (P12390 25-500): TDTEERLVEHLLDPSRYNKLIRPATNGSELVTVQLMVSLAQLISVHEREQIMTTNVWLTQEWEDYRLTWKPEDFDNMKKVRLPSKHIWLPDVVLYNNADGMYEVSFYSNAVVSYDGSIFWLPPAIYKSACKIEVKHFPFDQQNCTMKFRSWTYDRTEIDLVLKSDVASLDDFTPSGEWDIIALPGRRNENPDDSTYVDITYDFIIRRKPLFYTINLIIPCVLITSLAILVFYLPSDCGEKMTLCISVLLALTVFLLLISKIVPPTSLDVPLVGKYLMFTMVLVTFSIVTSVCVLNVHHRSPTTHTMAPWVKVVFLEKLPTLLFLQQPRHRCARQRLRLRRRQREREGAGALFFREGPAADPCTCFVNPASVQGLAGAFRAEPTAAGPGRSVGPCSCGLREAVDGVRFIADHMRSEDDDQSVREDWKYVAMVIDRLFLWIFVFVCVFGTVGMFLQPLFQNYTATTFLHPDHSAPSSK
Sequence of SERT (serotonin transporter) (P31645 whole entry, species assumed): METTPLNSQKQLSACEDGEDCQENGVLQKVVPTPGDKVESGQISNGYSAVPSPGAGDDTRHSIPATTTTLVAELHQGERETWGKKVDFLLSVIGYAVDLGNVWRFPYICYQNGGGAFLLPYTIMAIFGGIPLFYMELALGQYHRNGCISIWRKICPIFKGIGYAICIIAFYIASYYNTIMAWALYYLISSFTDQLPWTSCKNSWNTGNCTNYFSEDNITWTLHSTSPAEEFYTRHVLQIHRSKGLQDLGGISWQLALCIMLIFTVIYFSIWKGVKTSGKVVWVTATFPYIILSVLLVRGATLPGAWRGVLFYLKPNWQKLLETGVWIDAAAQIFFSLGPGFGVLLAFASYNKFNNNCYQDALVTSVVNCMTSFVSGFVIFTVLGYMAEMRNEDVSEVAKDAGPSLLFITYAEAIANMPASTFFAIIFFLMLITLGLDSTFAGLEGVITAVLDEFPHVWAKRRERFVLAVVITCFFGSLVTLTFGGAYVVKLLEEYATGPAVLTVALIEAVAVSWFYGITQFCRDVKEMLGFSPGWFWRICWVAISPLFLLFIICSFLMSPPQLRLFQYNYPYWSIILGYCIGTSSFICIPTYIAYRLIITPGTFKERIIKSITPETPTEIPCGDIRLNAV
Sequence of H1 (P35367 whole entry): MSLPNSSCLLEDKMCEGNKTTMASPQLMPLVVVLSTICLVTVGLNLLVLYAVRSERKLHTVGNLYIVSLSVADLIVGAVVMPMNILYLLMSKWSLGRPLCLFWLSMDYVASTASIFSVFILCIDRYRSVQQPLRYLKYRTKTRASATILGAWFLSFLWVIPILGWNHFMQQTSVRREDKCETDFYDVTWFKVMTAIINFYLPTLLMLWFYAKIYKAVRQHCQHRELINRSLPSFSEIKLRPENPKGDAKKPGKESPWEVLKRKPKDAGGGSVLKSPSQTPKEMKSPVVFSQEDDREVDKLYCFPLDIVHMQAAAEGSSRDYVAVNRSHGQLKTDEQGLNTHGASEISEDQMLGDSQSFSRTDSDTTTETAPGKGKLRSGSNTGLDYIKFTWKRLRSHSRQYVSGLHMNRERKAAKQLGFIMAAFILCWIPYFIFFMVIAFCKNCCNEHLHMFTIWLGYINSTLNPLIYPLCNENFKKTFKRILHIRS
Sequence of Sigma2 (Q5BJF2 whole entry): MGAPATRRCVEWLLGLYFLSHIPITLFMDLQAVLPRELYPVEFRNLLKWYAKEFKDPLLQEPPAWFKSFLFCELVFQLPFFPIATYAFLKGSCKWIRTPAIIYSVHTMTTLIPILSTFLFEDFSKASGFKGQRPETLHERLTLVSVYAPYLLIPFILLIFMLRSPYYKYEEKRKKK

Q: With `CCNC1(c2cccc(OC)c2)CCCCC1=O` (racemic) [Methoxetamine, (RS)-2-(ethylamino)-2-(3-methoxyphenyl)cyclohexanone] as the compound, how does the Ki [1] read?
A: The Ki was > 10 µM.

Q: And the inhibition at 10 µM [2]?
A: The inhibition at 10 µM was < 50%.

Q: What about the Ki ([2]; Ki Sigma 2, Table S1, unit inferred) of the same compound?
A: The Ki was > 10 µM.

Q: What about the Ki [3] of the same compound?
A: Its Ki is > 10 µM.

Q: What about the Ki [4] of the same compound?
A: Its Ki is 2.96 µM.

Q: What about the Ki [5] of the same compound?
A: Its Ki is > 10 µM.

Q: With `COc1cccc(C2(N3CCCCC3)CCCCC2)c1` [3-MeO-PCP, 1-[1-(3-methoxyphenyl)cyclohexyl]piperidine] as the compound, how does the Ki [1] read?
A: The Ki was > 10 µM.

Q: What about the inhibition at 10 µM [2] of the same compound?
A: Its inhibition at 10 µM is < 50%.

Q: What about the Ki [6] of the same compound?
A: The Ki was 0.216 µM.

Q: And the Ki [3]?
A: Its Ki is 0.964 µM.

Q: What about the Ki [4] of the same compound?
A: Its Ki is > 10 µM.

Q: And the Ki [5]?
A: Its Ki is > 10 µM.

Q: With `COc1ccc(C2(N3CCCCC3)CCCCC2)cc1` [4-MeO-PCP, 1-[1-(4-methoxyphenyl)cyclohexyl]piperidine] as the compound, how does the Ki [1] read?
A: The Ki was > 10 µM.

Q: And the “affinity for the serotonin transporter (SERT), in words” value [6]?
A: The value was “submicromolar affinities”.

Q: And the Ki [6]?
A: The Ki was 0.844 µM.

Q: What about the Ki [3] of the same compound?
A: Its Ki is > 10 µM.

Q: And the Ki [4]?
A: The Ki was > 10 µM.

Q: What about the Ki [5] of the same compound?
A: Its Ki is > 10 µM.
